Here are results for 39 compounds from patent US9422240B2, “Partially saturated nitrogen-containing heterocyclic compound” (TAISHO PHARMACEUTICAL CO., LTD, priority 2012, dated 2016).

The target in experiment [1] is T1, human PHD2 (Homo sapiens (Human), UniProt Q9GZT9). In words: Test 2: human PHD2 inhibitory activity, fluorescence polarization assay of HIF-1α peptide proline hydroxylation. To be noted: for inhibition at 1 µM: read-out: Percent inhibition (% at 1 μM). In kind it is biochemical. The method in brief: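 Enzyme from lysate of cells expressing human PHD2 (NM_022051), 40 ng/well, added to compound and 19-residue HIF-1α peptide substrate; 20 min at 30° C., EDTA quench. Prolyl hydroxylation detected by HIF-OH antibody binding via fluorescence polarization; inhibition relative to compound-free wells.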
T1 sequence (Q9GZT9 whole entry): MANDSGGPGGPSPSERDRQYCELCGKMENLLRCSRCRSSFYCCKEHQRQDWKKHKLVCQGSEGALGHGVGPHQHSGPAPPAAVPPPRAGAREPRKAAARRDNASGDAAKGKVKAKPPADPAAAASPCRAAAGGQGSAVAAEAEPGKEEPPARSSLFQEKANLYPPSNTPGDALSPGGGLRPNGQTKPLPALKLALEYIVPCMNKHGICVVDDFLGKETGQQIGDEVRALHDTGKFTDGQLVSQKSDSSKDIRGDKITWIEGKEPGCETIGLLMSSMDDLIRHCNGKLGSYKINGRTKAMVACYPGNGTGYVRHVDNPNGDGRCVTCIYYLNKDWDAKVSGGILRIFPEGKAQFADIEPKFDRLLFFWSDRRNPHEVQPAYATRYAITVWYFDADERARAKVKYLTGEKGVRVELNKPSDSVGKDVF
(In general: In fluorescence polarisation assays a small probe gives low polarisation when free and higher when bound to something large.)

The target in experiment [2] is T1, human PHD2. In words: Test 1: human PHD2 inhibitory activity, [14C]-2-oxoglutarate to [14C]-succinic acid radiometric assay with HIF-1α peptide. The class given is biochemical. To be noted: read-out: Percent inhibition (% at 1 μM). Here is the method: (1) Expression and Preparation of Human PHD2
Human PHD2 was expressed in insect cells (HighFive cells). A registered sequence of human PHD2 (NM_022051) was introduced into the pFastBacl vector (Invitrogen), and the sequence was verified. The vector was introduced into Sf9 insect cells (Invitrogen) to acquire human PHD2 baculovirus. HighFive insect cells (Invitrogen) were infected with this recombinant virus and cultured at 27° C. for 72 hours; thereafter, a cell lysis solution containing various protease inhibitors was added and the cells were disrupted to form a suspension. The suspension of disrupted cells was centrifuged at 4° C. and 100,000×g for 30 minutes and the supernatant was recovered as a cell lysate.
(2) Measurement of Human PHD2 Inhibitory Activity
The activity of human PHD2 enzyme was measured with a substrate which is a 19-residue partial peptide based on the sequence of HIF-1α. Specifically, the conversion of 2-oxoglutarate to succinic acid which would occur simultaneously with the hydroxylation of a proline residue in the peptide with the PHD2 enzyme was utilized. To be more specific, [^14C]-2-oxogiutarate was added to the reaction system to initiate an enzymatic reaction and the [^14C]-2-oxoglutarate remaining after the reaction was bound to 2,4-dinitrophenylhydrazine (DNPH), with the resulting precipitate being removed by passage through a filter. Subsequently, radiation counting was conducted on the resulting [^14C]-succinic acid.
A test compound, HIF-1αpeptide and [^14C]-2-oxoglutarate were preliminarily added onto 96-well plates and reaction was initiated by adding a human PHD2 enzyme solution (4 μg/well). After 15-min incubation at 37° C., a DNPH-containing quench solution was added and the mixture was allowed to stand at room temperature for 30 minutes. Thereafter, an excess of non-radiolabelled 2-oxoglutarate was added and the mixture was allowed to stand at room temperature for 60 minutes. The resulting precipitate was removed by passage through a filter and the radiation count on the [^14C]-succinic acid was quantified (with MicroBeta). Radiation counting was conducted for each well and the human PHD2 inhibitory activity of each test compound was calculated on the basis of the values for the substrate-free group and the test compound-free group.

Setting [3] is: test compound's concentration 1 μM, Test 2, fluorescence polarization assay.
The mark [4] stands for this setting: test compound's concentration 1 μM, Test 1, [14C]-2-oxoglutarate radiometric assay.

Molecules are shown by their SMILES. Counter-ions that a name gives are not always drawn.

For orientation: inhibition means the share of the control response that was lost under treatment. Take `O=C(O)CNC(=O)C1=C(O)CC2(CCOCC2)N(Cc2ccc(-c3ccc(C(F)(F)F)cc3)cc2)C1=O` [Ex. 1-1, N-[(4-Hydroxy-2-oxo-1-{[4′-(trifluoromethyl)biphenyl-4-yl]methyl}-9-oxa-1-azaspiro[5.5]undec-3-en-3-yl)carbonyl]glycine]: the inhibition at 1 µM at human PHD2 [1] (setting [3]) was 94%; at human PHD2 [2] (setting [4]) it was 78%.
For the compound `O=C(O)CNC(=O)C1=C(O)CC2(COC2)N(Cc2ccc(-c3ccccc3)cc2)C1=O` [Ex. 1-2, N-{[5-(Biphenyl-4-ylmethyl)-8-hydroxy-6-oxo-2-oxa-5-azaspiro[3.5]non-7-en-7-yl]carbonyl}glycine], the inhibition at 1 µM on human PHD2 [1] (setting [3]) stood at 92%; on human PHD2 [2] (setting [4]), 94%.
For `CC1CN(Cc2ccc(OC(F)(F)F)cc2)C(=O)C(C(=O)NCC(=O)O)=C1O` (centres unmarked) [Ex. 1-3, N-({4-Hydroxy-5-methyl-2-oxo-1-[4-(trifluoromethoxy)benzyl]-1,2,5,6-tetrahydropyridin-3-yl}carbonyl)glycine sodium salt], the results for the inhibition at 1 µM on human PHD2 [1] and on human PHD2 [2] were 78% and 74%, respectively.
Consider `O=C(O)CNC(=O)C1=C(O)C2(CCCCC2)CN(Cc2ccccc2)C1=O` [Ex. 1-6], for which the inhibition at 1 µM at human PHD2 [1] (setting [3]) was determined as 57%; at human PHD2 [2] (setting [4]), 50%.
On the same counts, the results for `O=C(O)CNC(=O)C1=C(O)C2(CCCCC2)CN(Cc2ccc3ccccc3c2)C1=O` [Ex. 1-7] are 68% and 54%.
With `O=C(O)CNC(=O)C1=C(O)C2(CCCCC2)CN(Cc2ccc(-c3ccccc3)cc2)C1=O` [Ex. 1-8], the inhibition at 1 µM was found to be 87% at human PHD2 [1] (setting [3]) and 54% at human PHD2 [2] (setting [4]).
For `O=C(O)CNC(=O)C1=C(O)CC2(CCCC2)N(Cc2ccc(-c3ccccc3)cc2)C1=O` [Ex. 1-9], the inhibition at 1 µM on human PHD2 [1] (setting [3]) amounted to 93%; on human PHD2 [2] (setting [4]), 88%.
Consider `O=C(O)CNC(=O)C1=C(O)CC2(CCOCC2)N(Cc2ccc(-c3ccccc3)cc2)C1=O` [Ex. 1-10], for which the values for the inhibition at 1 µM on human PHD2 [1] (setting [3]) and on human PHD2 [2] (setting [4]) were 92% and 93%, respectively.
For the compound `O=C(O)CNC(=O)C1=C(O)C2(CCOCC2)CN(Cc2ccc(-c3ccccc3)cc2)C1=O` [Ex. 1-11], the values for the inhibition at 1 µM on human PHD2 [1] (setting [3]) and on human PHD2 [2] (setting [4]) were 93% and 95%, respectively.
For the compound `O=C(O)CNC(=O)C1=C(O)C2(CCCC2)CN(Cc2ccc(-c3ccccc3)cc2)C1=O` [Ex. 1-13], the inhibition at 1 µM on human PHD2 [1] (setting [3]) turned out to be 81%; on human PHD2 [2] (setting [4]) it was 64%.
`O=C(O)CNC(=O)C1=C(O)C2(CCCCCC2)CN(Cc2ccc(-c3ccccc3)cc2)C1=O` [Ex. 1-14]: the inhibition at 1 µM was 36% at human PHD2 [1] (setting [3]) and 21% at human PHD2 [2] (setting [4]).
As for `O=C(O)CNC(=O)C1=C(O)C2(CCC2)CN(Cc2ccc(-c3ccccc3)cc2)C1=O` [Ex. 1-15], the inhibition at 1 µM on human PHD2 [1] (setting [3]) turned out to be 86%; on human PHD2 [2] (setting [4]), 72%.
On the same counts, the results for `CC1(C)CC(O)=C(C(=O)NCC(=O)O)C(=O)N1Cc1ccc(-c2ccccc2)cc1` [Ex. 1-17] are 85% and 84%.
With `O=C(O)CNC(=O)C1=C(O)CCN(Cc2ccccc2)C1=O` [Ex. 1-21], the inhibition at 1 µM on human PHD2 [1] (setting [3]) was 73%; on human PHD2 [2] (setting [4]), 72%.
`O=C(O)CNC(=O)C1=C(O)CCN(Cc2ccc(Br)cc2)C1=O` [Ex. 1-23]: the inhibition at 1 µM was 82% at human PHD2 [1] (setting [3]) and 84% on human PHD2 [2] (setting [4]).
Turning to `O=C(O)CNC(=O)C1=C(O)CCN(Cc2cccc(-c3ccccc3)c2)C1=O` [Ex. 1-24], the results for the inhibition at 1 µM on human PHD2 [1] (setting [3]) and at human PHD2 [2] (setting [4]) were 84% and 74%, respectively.
The like results for `O=C(O)CNC(=O)C1=C(O)CCN(Cc2ccccc2-c2ccccc2)C1=O` [Ex. 1-25] were, in that order, 76% and 72%.
`O=C(O)CNC(=O)C1=C(O)CCN(CC2CCC(c3ccccc3)CC2)C1=O` (centres unmarked) [Ex. 1-26]: on human PHD2 [2] (setting [4]), the inhibition at 1 µM was 90%.
On to `CC1(C)CN(Cc2ccc(-c3ccccc3)cc2)C(=O)C(C(=O)NCC(=O)O)=C1O` [Ex. 1-27], for which the figures for the inhibition at 1 µM at human PHD2 [1] (setting [3]) and on human PHD2 [2] (setting [4]) were 89% and 75%, respectively.
As usually defined, the IC50 is the concentration that gives 50% inhibition. A higher IC50 goes with weaker potency in that assay. At human PHD2 [1] (human PHD2, fluorescence polarization assay, 20-min incubation at 30° C.), `O=C(O)CNC(=O)C1=C(O)CCN(Cc2ccc(Oc3ccccc3)cc2)C1=O` [Ex. 1-28] gave an IC50 of 88 nM. Besides, the inhibition at 1 µM was determined as 92% at human PHD2 [1] (setting [3]) and 94% on human PHD2 [2] (setting [4]).
In the case of `O=C(O)CNC(=O)C1=C(O)CCN(Cc2ccc3ccccc3c2)C1=O` [Ex. 1-29], the inhibition at 1 µM on human PHD2 [1] (setting [3]) is 86%; at human PHD2 [2] (setting [4]), 81%.
With `O=C(O)CNC(=O)C1=C(O)CCN(CCCCCc2ccccc2)C1=O` [Ex. 1-30], the inhibition at 1 µM on human PHD2 [1] (setting [3]) came to 83%; at human PHD2 [2] (setting [4]), 77%.
Regarding `O=C(O)CNC(=O)C1=C(O)CCN(CCc2ccc(-c3ccccc3)cc2)C1=O` [Ex. 1-31], the inhibition at 1 µM at human PHD2 [1] (setting [3]) and on human PHD2 [2] (setting [4]) was 89% in each case.
For `O=C(O)CNC(=O)C1=C(O)CCN(Cc2ccc3cccnc3c2)C1=O` [Ex. 1-32], the results for the inhibition at 1 µM at human PHD2 [1] (setting [3]) and at human PHD2 [2] (setting [4]) were 82% and 78%, respectively.
Consider `O=C(O)CNC(=O)C1=C(O)CCN(Cc2cccc3ccccc23)C1=O` [Ex. 1-33], for which the values for the inhibition at 1 µM at human PHD2 [1] (setting [3]) and on human PHD2 [2] (setting [4]) were 84% and 72%, respectively.
On to `O=C(O)CNC(=O)C1=C(O)CCN(CCc2ccccc2)C1=O` [Ex. 1-34], for which the inhibition at 1 µM turned out to be 75% at human PHD2 [1] (setting [3]) and 58% on human PHD2 [2] (setting [4]).
On to `O=C(O)CNC(=O)C1=C(O)CC2(CCN(C(=O)c3ccccc3)CC2)N(Cc2ccc(-c3ccccc3)cc2)C1=O` [Ex. 7-1, N-{[9-Benzoyl-1-(4-biphenylylmethyl)-4-hydroxy-2-oxo-1,9-diazaspiro[5.5]undec-3-en-3-yl]carbonyl}glycine], for which, on human PHD2 [1] (setting [3]), the inhibition at 1 µM stood at 97%.
For the compound `O=C(O)CNC(=O)C1=C(O)CC2(CCN(Cc3ccccc3)CC2)N(Cc2ccc(-c3ccccc3)cc2)C1=O` [Ex. 7-2, N-{[9-Benzyl-1-(4-biphenylylmethyl)-4-hydroxy-2-oxo-1,9-diazaspiro[5.5]undec-3-en-3-yl]carbonyl}glycine trifluoroacetate], the inhibition at 1 µM at human PHD2 [1] (setting [3]) was determined as 88%.
In the case of `O=C(O)CNC(=O)C1=C(O)CC2(CCN(C(=O)c3ccccc3)CC2)N(Cc2ccccc2)C1=O` [Ex. 7-3, N-[(9-Benzoyl-1-benzyl-4-hydroxy-2-oxo-1,9-diazaspiro[5.5]undec-3-en-3-yl)carbonyl]glycine], the inhibition at 1 µM on human PHD2 [1] (setting [3]) was determined as 65%.
For `COc1ccc(CN2CCC(O)=C(C(=O)NCC(=O)NO)C2=O)cc1` [Ex. 8-1, 4-Hydroxy-N-[2-(hydroxyamino)-2-oxoethyl]-1-(4-methoxybenzyl)-2-oxo-1,2,5,6-tetrahydro-3-pyridinecarboxamide], the inhibition at 1 µM at human PHD2 [1] (setting [3]) came out at 16%.
With `COc1ccc(CN2CCC(O)=C(C(=O)NCCC(=O)O)C2=O)cc1` [Ex. 9-1, N-{[4-Hydroxy-1-(4-methoxybenzyl)-2-oxo-1,2,5,6-tetrahydro-3-pyridinyl]carbonyl}-β-alanine], the inhibition at 1 µM on human PHD2 [1] (setting [3]) was found to be 29%.
On to `COc1ccc(CN2CCC(O)=C(C(=O)NCCCC(=O)O)C2=O)cc1` [Ex. 9-2], for which, on human PHD2 [1] (setting [3]), the inhibition at 1 µM was found to be 23%.
`COc1ccc(CN2CCC(O)=C(C(=O)N[C@H](C)C(=O)O)C2=O)cc1` [Ex. 9-3]: the inhibition at 1 µM at human PHD2 [1] (setting [3]) amounted to 1%.
As to `COc1ccc(CN2CCC(O)=C(C(=O)N[C@@H](C)C(=O)O)C2=O)cc1` [Ex. 9-4], the inhibition at 1 µM on human PHD2 [1] (setting [3]) was 42%.
Same read-out and setting: under `COc1ccc(CN2CCC(O)=C(C(=O)N(C)CC(=O)O)C2=O)cc1` [Ex. 9-5, N-{[4-Hydroxy-1-(4-methoxybenzyl)-2-oxo-1,2,5,6-tetrahydro-3-pyridinyl]carbonyl}-N-methylglycine] stands 3%.
Consider `CC1(C)CC(O)=C(C(=O)NCC(=O)O)C(=O)N1CC(=O)NCc1ccc(-c2ccccc2)cc1` [Ex. 10-1, N-[(1-{2-[(4-Biphenylylmethyl)amino]-2-oxoethyl}-4-hydroxy-6,6-dimethyl-2-oxo-1,2,5,6-tetrahydro-3-pyridinyl)carbonyl]glycine sodium salt], for which, on human PHD2 [1], the inhibition at 1 µM is 34%.
Regarding `CC1(C)CC(O)=C(C(=O)NCC(=O)O)C(=O)N1CC(=O)NCc1ccc(C(F)(F)F)cc1` [Ex. 10-2], at human PHD2 [1] (setting [3]), the inhibition at 1 µM came out at 6%.
As for `CN(Cc1ccc(F)cc1)C(=O)CN1C(=O)C(C(=O)NCC(=O)O)=C(O)CC1(C)C` [Ex. 10-4], the inhibition at 1 µM on human PHD2 [1] (setting [3]) worked out at 10%.
Take `O=C(O)CNC(=O)C1=C(O)CCN(C(CO)c2ccc(-c3ccc(F)cc3)cc2)C1=O` (centres unmarked) [Ex. 11-1, N-({1-[1-(4′-Fuoro-4-biphenylyl)-2-hydroxyethyl]-4-hydroxy-2-oxo-1,2,5,6-tetrahydro-3-pyridinyl}carbonyl)glycine]: the inhibition at 1 µM on human PHD2 [1] (setting [3]) came to 96%.
